From patent publication US20260103474A1, “NOVEL COMPOUNDS FOR THE DIAGNOSIS OF TDP-43 PROTEINOPATHIES” (AC IMMUNE SA, priority 2022, published 2026) come the findings set out here.

One assay deals with T1, Abeta (Homo sapiens, UniProt P05067).
T1 construct: an AD donor with confirmed burden of Tau and Abeta aggregates; from tissue; host or cells: frontal cortex of a human AD donor, Triton/sucrose-insoluble fraction
Nature of the assay: Radiobinding competition assay using Abeta reference compound on AD insoluble fraction of brain homogenates. In kind it is binding. As to conditions: against [3H]Abeta reference compound. The procedure:
Approximately 4 g of frozen tissue block from frontal cortex brain region was used from an AD donor with confirmed burden of Tau and Abeta aggregates. The tissue was homogenized in three volumes (1:3 w/v) of high salt buffer (50 mM Tris-HCl pH 7.5, 750 mM NaCl, 5 mM EDTA) supplemented with protease inhibitors (Complete; Roche 11697498001) at 4° C. with a glass Dounce homogenizer. The homogenate was transferred into polycarbonate centrifuge bottles (16×76 mm; Beckman 355603) and centrifuged at 100,000×g (38,000 RPM) in an ultracentrifuge (Beckman, XL100K) for 60 minutes at 4° C. using a pre-cooled 70.1 rotor (Beckman, 342184). Pellets were resuspended in high salt buffer supplemented with 1% Triton X-100 and homogenized at 4° C. with a syringe. The homogenates were centrifuged again at 100,000×g (38,000 RPM, 70.1 rotor) for 60 minutes at 4° C. Pellets were resuspended in high salt buffer supplemented with 1% Triton X-100 and 1 M sucrose and homogenized at 4° C. with a syringe. The homogenates were centrifuged at 100,000×g (38,000 RPM, 70.1 rotor) for 60 minutes at 4° C. The resulting pellets containing insoluble fraction were resuspended in PBS (1:2 w/v relative to starting tissue weight), aliquoted and stored at −80° C. until use.
The reaction was performed in assay buffer (50 mM Tris pH 7.5 in 0.9% NaCl, 0.1% BSA) and incubated for two hours at room temperature (RT). Samples in duplicate were then filtered under vacuum in GF/C filter plates (PerkinElmer) to trap the aggregates with the bound radioligand and washed with 100 μL ice-cold 50 mM Tris pH 7.5. The GF/C filters were then dried and scintillation liquid (UltimateGold, PerkinElmer, 6013151) was added in each well. The filters were analyzed on a Microbeta2 scintillation counter (PerkinElmer). Values for the maximal signal were obtained in the absence of non-radiolabeled compound, while 100% displacement was obtained using 1 μM of non-radiolabeled reference compound. Ki values were calculated by nonlinear regression, using a one site—fit Ki model in Prism V7 (GraphPad).

For assay [1], the target named is human FTD Type A sarkosyl-insoluble brain extracts (Homo sapiens, UniProt Q13148). As to the kind of experiment: Kd determination by micro-radiobinding assay on FTD Type A extracts. In kind it is binding. As to conditions: tritiated compound 1.29 to 300 nM. How it is done: Human brain extracts were prepared as described in Laferriere et al., 2019, Nature Neurosc. A sample of brain tissue (frontal or temporal cortex) was homogenized at 1:4 (w/v) ratio in the homogenization-solubilization (HS) buffer at 4° C. using tissue homogenizer (Precellys) with CKmix homogenization tubes. The following sequence was used for homogenization: 3 cycles of 30 seconds at 5000 rpm (with 15 seconds pause between each cycle). Homogenized samples were aliquoted and stored at −80° C. in 1.5 mL low protein binding tubes.
Brain homogenates were thawed on ice and resuspended in HS buffer to obtain a final concentration of 2% sarkosyl, 1 unit/μL Benzonase and 1 mM MgCl2. The samples were then incubated at 37° C. under constant shaking at 600 rpm on a thermomixer for 45 minutes (min). The supernatants were collected in a new tube (sarkosyl-soluble fraction, S1). The pellet was resuspended in 1000 μL of myelin floatation buffer and centrifuged at 20,000 g for 60 min at 4° C. The supernatant was carefully removed to remove all the floating lipids. This step was repeated if all the lipids could not be removed in a single step. The pellet was subsequently washed with Phosphate-Buffered Saline (PBS) and centrifuged for 30 min at 20,000 g at 4° C. The final pellet was resuspended in 200 μL PBS and stored at −80° C. (sarkosyl-insoluble fraction). The samples were analyzed by immunoblotting in denaturing conditions.
Human FTD sarkosyl-insoluble brain extracts were spotted onto microarray slides. The slides were incubated with [^3H]-Compounds 1, 7, 8, 9, 15, 16 and 17 in a range of concentrations, varying from 1.29 to 300 nM. After incubation, slides were washed and scanned by a real-time autoradiography system (BeaQuant, ai4R). Quantification of the signal was performed by using the Beamage image analysis software (ai4R). Non-specific signal was determined with an excess of non-radiolabeled compound 1, 7, 8, 9, 15, 16 and 17 (1 μM), respectively, and specific binding was calculated by subtracting the non-specific signal from the total signal.
The Kd (Dissociation constant) and R^2 (parameter ranging between 0.0 and 1.0 that quantifies the goodness of fit, and the best curve fit obtained with value of 1.0) were obtained by fitting the specific binding data with non-linear regression analysis, using a one-site specific binding model in GraphPad Prism8.

The mark [2] stands for this setting: cells printed in μM, read-out: Ki on AD brain homogenates.

Where two headings read alike, the source gives them in different places.

T1 sequence (P05067 672-713 limits assumed): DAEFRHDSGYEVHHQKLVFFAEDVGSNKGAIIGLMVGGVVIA
human FTD Type A sarkosyl-insoluble brain extracts, sequence (Q13148 263-414 limits assumed): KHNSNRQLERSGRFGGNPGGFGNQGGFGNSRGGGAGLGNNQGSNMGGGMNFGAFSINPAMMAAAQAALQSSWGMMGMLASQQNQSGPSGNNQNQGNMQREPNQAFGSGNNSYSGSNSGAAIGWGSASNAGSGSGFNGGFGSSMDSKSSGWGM

`O=C1c2sc(-c3ccc(N4CC[C@@H](F)C4)nc3F)nc2CCN1c1cccnc1` [Compound 1, 2-[2-fluoro-6-[(3R)-3-fluoropyrrolidin-1-yl]-3-pyridyl]-5-(3-pyridyl)-6,7-dihydrothiazolo[5,4-c]pyridin-4-one]: the Ki at Abeta (setting [2]) and on Abeta (read-out: Ki (nM) on AD brain homogenates) was more than 1 µM in each case.

Consider `O=C1c2sc(-c3ccc(N4CCC(CO)CC4)nc3F)nc2CCN1c1cccnc1` [Compound 17, 2-(2-fluoro-6-(4-(hydroxymethyl)piperidin-1-yl)pyridin-3-yl)-5-(pyridin-3-yl)-6,7-dihydrothiazolo[5,4-c]pyridin-4(5H)-one], for which the Ki (in general, the dissociation constant of the complex between target and ligand, obtained from inhibition or displacement) at Abeta (setting [2]) is more than 1 µM.

With `[3H]C([3H])(O)C1CCN(c2ccc(-c3nc4c(s3)C(=O)N(c3cccnc3)CC4)c(F)n2)CC1` [[^3H]-Compound 17, 2-(2-fluoro-6-(4-(hydroxymethyl-t2)piperidin-1-yl)pyridin-3-yl)-5-(pyridin-3-yl)-6,7-dihydrothiazolo[5,4-c]pyridin-4(5H)-one], in assay [1], the Kd – broadly, a measure of binding affinity in units of concentration – is 25 ± 6 nM.

`[3H]c1cncc(N2CCc3nc(-c4cc([3H])c(N5CC[C@@H](F)C5)nc4F)sc3C2=O)c1` [[^3H]-Compound 1, tritiated 2-[2-fluoro-6-[(3R)-3-fluoropyrrolidin-1-yl]-3-pyridyl]-5-(3-pyridyl)-6,7-dihydrothiazolo[5,4-c]pyridin-4-one]: in assay [1], the Kd was found to be 69 ± 21 nM.
